# Reference: patent US20020026051A1, “Dithiepino [6,5-b]pyridines, and related compositions and methods” (priority 1999, published 2002)
# Molecular target: T1, calcium channel (Oryctolagus cuniculus, UniProt P15381)
# T1 construct: from tissue; host or cells: rabbit heart membrane preparation
# Assay: Assay for Inhibition of Nitrendipine Binding (3H-nitrendipine, heart membranes)
# Details: 3H-nitrendipine displacement, rabbit heart membranes; Tables 1-5
# Description: Female, New Zealand white rabbits (1-2 kg) are sacrificed by cervical dislocation, and the heart is immediately removed, cleaned and chopped into small pieces. The tissue is homogenized in 5× times volume of 0.05M Hepes buffer, pH 7.4. The homogenate is centrifuged at 4000 g for 10 minutes, and the supernatant is re-centrifuged at 42,000×g for 90 minutes. The resulting membrane pellet is resuspended (0.7 ml/g weight) in 0.05M Hepes, pH 7.4 and stored at […] until used. Each tube of the binding assay contains ^3H-nitrendipine (0.05-0.50 nM), buffer, membranes (0.10 ml), and test compound in a total volume of 1.0 ml. After 90 minutes at 4° C., the bound nitrendipine is separated from the unbound by filtration on Whatman GF/C filters. After rinsing, the filters are dried and counted in a liquid scintillation counter.
# Non-specific binding of ^3H-nitrendipine (that amount bound in the presence of excess unlabelled nitrendipine) is subtracted from the total bound to obtain specifically bound radiolabeled nitrendipine. The amount of specifically bound nitrendipine in the presence of a test compound is compared to that amount bound in the absence of a compound. A percent displacement (or inhibition) can then be calculated.
# T1 sequence (P15381 whole entry, other chains not shown): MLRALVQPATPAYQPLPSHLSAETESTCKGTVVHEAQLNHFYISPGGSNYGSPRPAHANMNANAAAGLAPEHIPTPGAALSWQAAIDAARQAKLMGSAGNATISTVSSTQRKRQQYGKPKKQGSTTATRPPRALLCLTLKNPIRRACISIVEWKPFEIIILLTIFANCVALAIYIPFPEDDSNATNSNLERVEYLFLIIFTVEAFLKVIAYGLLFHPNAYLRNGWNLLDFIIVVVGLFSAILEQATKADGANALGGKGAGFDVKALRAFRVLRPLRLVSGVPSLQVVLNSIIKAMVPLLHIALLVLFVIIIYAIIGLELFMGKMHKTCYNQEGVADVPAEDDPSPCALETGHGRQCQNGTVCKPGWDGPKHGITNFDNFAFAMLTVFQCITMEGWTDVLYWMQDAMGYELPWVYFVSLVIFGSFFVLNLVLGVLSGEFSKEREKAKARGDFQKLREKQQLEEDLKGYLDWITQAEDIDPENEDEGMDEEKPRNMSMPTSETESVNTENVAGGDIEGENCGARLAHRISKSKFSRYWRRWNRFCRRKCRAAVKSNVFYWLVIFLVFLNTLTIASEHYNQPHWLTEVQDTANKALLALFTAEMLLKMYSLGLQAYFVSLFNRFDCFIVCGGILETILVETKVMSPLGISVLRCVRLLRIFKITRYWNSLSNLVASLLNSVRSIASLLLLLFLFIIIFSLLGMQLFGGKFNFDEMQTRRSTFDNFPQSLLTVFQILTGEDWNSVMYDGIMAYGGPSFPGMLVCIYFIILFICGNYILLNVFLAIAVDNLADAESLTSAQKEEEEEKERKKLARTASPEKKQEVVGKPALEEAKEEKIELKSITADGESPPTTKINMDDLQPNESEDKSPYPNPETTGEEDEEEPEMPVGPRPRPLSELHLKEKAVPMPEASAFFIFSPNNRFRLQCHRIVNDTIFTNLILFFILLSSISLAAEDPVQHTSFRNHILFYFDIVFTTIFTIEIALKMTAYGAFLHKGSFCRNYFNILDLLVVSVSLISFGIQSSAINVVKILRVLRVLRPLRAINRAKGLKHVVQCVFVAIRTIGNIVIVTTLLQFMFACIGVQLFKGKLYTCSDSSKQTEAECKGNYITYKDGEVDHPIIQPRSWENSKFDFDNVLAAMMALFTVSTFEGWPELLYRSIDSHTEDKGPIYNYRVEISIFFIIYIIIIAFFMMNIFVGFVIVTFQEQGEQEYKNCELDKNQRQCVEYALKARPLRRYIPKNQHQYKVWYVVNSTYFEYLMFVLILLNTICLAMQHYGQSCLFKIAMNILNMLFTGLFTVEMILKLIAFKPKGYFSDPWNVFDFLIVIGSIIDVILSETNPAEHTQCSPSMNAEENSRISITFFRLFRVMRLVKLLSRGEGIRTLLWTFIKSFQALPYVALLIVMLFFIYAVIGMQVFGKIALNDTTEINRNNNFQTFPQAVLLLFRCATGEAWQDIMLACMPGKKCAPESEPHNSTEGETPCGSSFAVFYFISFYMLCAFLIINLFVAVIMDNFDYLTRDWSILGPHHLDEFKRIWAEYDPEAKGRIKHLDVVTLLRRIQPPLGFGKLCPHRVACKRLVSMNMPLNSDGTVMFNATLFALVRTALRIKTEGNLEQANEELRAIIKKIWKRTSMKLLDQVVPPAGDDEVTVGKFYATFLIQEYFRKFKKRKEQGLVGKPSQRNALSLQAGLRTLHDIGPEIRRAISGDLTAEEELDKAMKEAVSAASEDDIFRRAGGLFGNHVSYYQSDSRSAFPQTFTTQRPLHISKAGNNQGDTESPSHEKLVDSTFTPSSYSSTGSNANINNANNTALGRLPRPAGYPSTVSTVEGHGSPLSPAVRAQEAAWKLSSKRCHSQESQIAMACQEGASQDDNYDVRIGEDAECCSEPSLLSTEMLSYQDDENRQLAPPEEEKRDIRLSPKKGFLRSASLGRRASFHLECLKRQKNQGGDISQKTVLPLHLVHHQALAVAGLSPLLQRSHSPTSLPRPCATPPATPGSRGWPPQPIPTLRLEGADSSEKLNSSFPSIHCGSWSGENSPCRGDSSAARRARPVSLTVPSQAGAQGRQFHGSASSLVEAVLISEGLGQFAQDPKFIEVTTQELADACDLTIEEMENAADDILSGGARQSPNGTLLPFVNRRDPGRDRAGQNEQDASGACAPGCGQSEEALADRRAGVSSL
# T1 sequence (P13806 27-960 partner limits assumed, other chains not shown): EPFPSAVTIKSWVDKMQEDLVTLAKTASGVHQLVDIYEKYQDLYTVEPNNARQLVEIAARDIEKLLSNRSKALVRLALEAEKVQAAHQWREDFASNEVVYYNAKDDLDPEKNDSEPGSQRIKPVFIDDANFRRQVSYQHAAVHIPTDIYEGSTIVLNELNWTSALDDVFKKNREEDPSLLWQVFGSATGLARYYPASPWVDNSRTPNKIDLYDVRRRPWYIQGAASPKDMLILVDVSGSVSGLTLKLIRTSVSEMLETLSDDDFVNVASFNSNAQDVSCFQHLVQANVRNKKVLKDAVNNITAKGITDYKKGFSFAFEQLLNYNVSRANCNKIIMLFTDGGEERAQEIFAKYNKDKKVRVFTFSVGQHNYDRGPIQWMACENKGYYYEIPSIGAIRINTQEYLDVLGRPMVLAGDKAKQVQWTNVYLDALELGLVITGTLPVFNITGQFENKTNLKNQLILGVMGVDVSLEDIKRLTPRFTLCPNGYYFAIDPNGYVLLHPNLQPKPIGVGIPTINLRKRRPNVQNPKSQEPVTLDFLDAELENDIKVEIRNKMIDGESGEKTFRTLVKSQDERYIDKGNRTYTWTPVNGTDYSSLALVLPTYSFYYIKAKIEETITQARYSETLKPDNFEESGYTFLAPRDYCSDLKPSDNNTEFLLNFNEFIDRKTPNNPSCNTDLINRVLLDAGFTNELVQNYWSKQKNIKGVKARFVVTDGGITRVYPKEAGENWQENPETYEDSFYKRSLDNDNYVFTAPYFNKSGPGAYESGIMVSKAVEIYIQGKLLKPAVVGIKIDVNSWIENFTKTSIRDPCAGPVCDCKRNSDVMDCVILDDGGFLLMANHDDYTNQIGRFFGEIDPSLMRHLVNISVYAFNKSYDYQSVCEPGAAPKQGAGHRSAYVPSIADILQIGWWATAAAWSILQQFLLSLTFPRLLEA
# T1 sequence (P13806 961-1106 partner limits assumed, other chains not shown): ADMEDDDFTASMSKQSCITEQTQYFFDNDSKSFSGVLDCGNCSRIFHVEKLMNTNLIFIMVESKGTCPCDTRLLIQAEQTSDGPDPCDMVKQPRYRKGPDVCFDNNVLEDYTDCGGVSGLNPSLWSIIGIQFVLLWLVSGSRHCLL
row,IC50 [nM],SMILES
1,45,"CC1=C(C(=O)OCCN(C)Cc2ccccc2)C(c2ccccc2Cl)C2=C(CS(=O)(=O)CCS2(=O)=O)N1 (stereo not shown) [Compound 6, 5H-1,4-Dithiepino[6,5-b]pyridine-8-carboxylic acid, 9-(2-chlorophenyl)-2,3,6,9-tetrahydro-7-methyl-2-[methyl(phenylmethyl)amino]ethyl ester 1,1,4,4-tetraoxide]"
2,193,"COC(=O)C1=C(C)NC2=C(C1c1cccc(C(F)(F)F)c1F)S(=O)(=O)CC(CO)S(=O)(=O)C2 (stereo not shown) [Compound 22, 5H-1,4-Dithiepino[6,5-b]pyridine-8-carboxylic acid, 9-[2-fluoro-3-(trifluoromethyl)phenyl]-2,3,6,9-tetrahydro-3-(hydroxymethyl)-7-methyl-methyl ester 1,1,4,4-tetraoxide]"
3,18,"CC1=C(C(=O)OCCN(C)Cc2ccccc2)C(c2cccc(C(F)(F)F)c2F)C2=C(CS(=O)(=O)CCS2(=O)=O)N1 (stereo not shown) [Compound 7, 5H-1,4-Dithiepino[6,5-b]pyridine-8-carboxylic acid, 9-[2-fluoro-3-(trifluoromethyl)phenyl]-2,3,6,9-tetrahydro-7-methyl-2-[methyl(phenylmethyl)amino]ethyl ester 1,1,4,4-tetraoxide]"
4,390,"CC1=C(C(=O)OCCN(C)Cc2ccccc2)C(c2c(O)cccc2Cl)C2=C(CS(=O)(=O)CCS2(=O)=O)N1 (stereo not shown) [Compound 4, 5H-1,4-Dithiepino[6,5-b]pyridine-8-carboxylic acid, 9-(2-chloro-6-hydroxyphenyl)-2,3,6,9-tetrahydro-7-methyl-2-[methyl(phenylmethyl)amino]ethyl ester 1,1,4,4-tetraoxide]"
5,160000,"CC1=C(C(=O)OCCN(C)Cc2ccccc2)[C@H](c2c(F)cccc2Cl)C2=C(CS(=O)(=O)CCS2(=O)=O)N1 (single isomer, unassigned) [Compound 3, 5H-1,4-Dithiepino[6,5-b]pyridine-8-carboxylic acid, 9-(2-chloro-6-fluorophenyl)-2,3,6,9-tetrahydro-7-methyl-2-[methyl(phenylmethyl)amino]ethyl ester 1,1,4,4-tetraoxide]"
6,24,"CC1=C(C(=O)OCCN(C)Cc2cccs2)C(c2cc(F)c(F)c(F)c2)C2=C(CS(=O)(=O)CCS2(=O)=O)N1 (stereo not shown) [Compound 10, 5H-1,4-Dithiepino[6,5-b]pyridine-8-carboxylic acid, 2,3,6,9-tetrahydro-7-methyl-9-(3,4,5-trifluorophenyl)-2-[methyl(2-thienylmethyl)amino]ethyl ester 1,1,4,4-tetraoxide]"
7,57,"CC1=C(C(=O)OCCN(C)Cc2ccccc2)C(c2ccccc2Cl)C2=C(CS(=O)(=O)CCCS2(=O)=O)N1 (stereo not shown) [Compound 29, 2H,6H-1,5-Dithiocino[3,2-b]pyridine-9-carboxylic acid, 10-(2-chlorophenyl)-3,4,7,10-tetrahydro-8-methyl-2-[methyl(phenylmethyl)amino]ethyl ester 1,1,5,5-tetraoxide]"
8,61,"COC(=O)C1=C(C)NC2=C(C1c1ccccc1Cl)S(=O)(=O)CCS(=O)(=O)C2 (stereo not shown) [Compound 15, 5H-1,4-Dithiepino[6,5-b]pyridine-8-carboxylic acid, 9-(2-chlorophenyl)-2,3,6,9-tetrahydro-7-methyl-methyl ester 1,1,4,4-tetraoxide]"
9,12,"CC1=C(C(=O)OCCN(C)Cc2ccccc2)C(c2c(F)cccc2C(F)(F)F)C2=C(CS(=O)(=O)CCS2(=O)=O)N1 (stereo not shown) [Compound 5, 5H-1,4-Dithiepino[6,5-b]pyridine-8-carboxylic acid, 9-[2-fluoro-6-(trifluoromethyl)phenyl]-2,3,6,9-tetrahydro-7-methyl-2-[methyl(phenylmethyl)amino]ethyl ester 1,1,4,4-tetraoxide]"
10,28,"CC1=C(C(=O)OCCN(C)Cc2ccccc2)C(c2cccc(C(F)(F)F)c2F)C2=C(CS(=O)(=O)CS2(=O)=O)N1 (stereo not shown) [Compound 31, 4H-1,3-Dithiino[5,4-b]pyridine-7-carboxylic acid, 8-[2-fluoro-3-(trifluoromethyl)phenyl]-5,8-dihydro-6-methyl-2-[methyl(phenylmethyl)amino]ethyl ester 1,1,3,3-tetraoxide]"
11,337,"CC1=C(C(=O)OCCN(C)Cc2ccccc2)C(c2cccc([N+](=O)[O-])c2)C2=C(CS(=O)(=O)C(CO)CS2(=O)=O)N1 (stereo not shown) [Compound 24, 5H-1,4-Dithiepino[6,5-b]pyridine-8-carboxylic acid, 2,3,6,9-tetrahydro-3-(hydroxymethyl)-7-methyl-9-(3-nitrophenyl)-2-[methyl(phenylmethyl)amino]ethyl ester 1,1,4,4-tetraoxide]"
12,259,"COC(=O)C1=C(C)NC2=C(C1c1c(F)cccc1F)S(=O)(=O)CCS(=O)(=O)C2 (stereo not shown) [Compound 14, 5H-1,4-Dithiepino[6,5-b]pyridine-8-carboxylic acid, 9-(2,6-difluorophenyl)-2,3,6,9-tetrahydro-7-methyl-methyl ester 1,1,4,4-tetraoxide]"
13,28,"CC1=C(C(=O)OCCN(C)Cc2ccccc2)C(c2c(F)cccc2C(F)(F)F)C2=C(CS(=O)(=O)CCCS2(=O)=O)N1 (stereo not shown) [Compound 26, 2H,6H-1,5-Dithiocino[3,2-b]pyridine-9-carboxylic acid, 10-[2-fluoro-6-(trifluoromethyl)phenyl]-3,4,7,10-tetrahydro-8-methyl-2-[methyl(phenylmethyl)amino]ethyl ester 1,1,5,5-tetraoxide]"
14,39,"CC1=C(C(=O)OCCN(C)Cc2ccccc2)C(c2ccccc2Cl)C2=C(CS(=O)(=O)CS2(=O)=O)N1 (stereo not shown) [Compound 32, 4H-1,3-Dithiino[5,4-b]pyridine-7-carboxylic acid, 8-(2-chlorophenyl)-5,8-dihydro-6-methyl-2-[methyl(phenylmethyl)amino]ethyl ester 1,1,3,3-tetraoxide]"

row,SMILES,IC50 [nM]
1,"CC1=C(C(=O)OCCN(C)Cc2ccccc2)C(c2cccc([N+](=O)[O-])c2)C2=C(CS(=O)(=O)CCS2(=O)=O)N1 (stereo not shown) [Compound 8, 5H-1,4-Dithiepino[6,5-b]pyridine-8-carboxylic acid, 2,3,6,9-tetrahydro-7-methyl-9-(3-nitrophenyl)-2-[methyl(phenylmethyl)amino]ethyl ester 1,1,4,4-tetraoxide]",43

# Same assay, conditions: 3H-nitrendipine displacement, rabbit heart membranes; Tables 6-7
row,SMILES,IC50 [nM]
1,CC1=C(C(=O)OCCOC(=O)C(N)C(C)C)C(c2c(F)cccc2Cl)C2=C(CS(=O)(=O)CCS2(=O)=O)N1 (stereo not shown) [Compound 92],5800
2,"CC1=C(C(=O)OCCOC(=O)C2CCCCCC2)C(c2c(F)cccc2Cl)C2=C(CS(=O)(=O)CCS2(=O)=O)N1 (stereo not shown) [Compound 39, 5H-[1,4]dithiepino[6,5-b]pyridine-8-carboxylic acid, 9-(2-chloro-6-fluorophenyl)-2,3,6,9-tetrahydro-7-methyl-, 2-[(cycloheptylcarbonyl)oxy]ethyl ester, 1,1,4,4-tetraoxide]",38
3,CC1=C(C(=O)OC2CCOC2=O)C(c2c(F)cccc2Cl)C2=C(CS(=O)(=O)CCS2(=O)=O)N1 (stereo not shown) [Compound 60],174
4,CCC(CC)C(=O)OCCOC(=O)C1=C(C)NC2=C(C1c1c(F)cccc1Cl)S(=O)(=O)CCS(=O)(=O)C2 (stereo not shown) [Compound 33],13
5,CC1=C(C(=O)OCC(N)=O)C(c2c(F)cccc2Cl)C2=C(CS(=O)(=O)CCS2(=O)=O)N1 (stereo not shown) [Compound 93],6990
6,CC1=C(C(=O)OCCN)C(c2c(F)cccc2Cl)C2=C(CS(=O)(=O)CCS2(=O)=O)N1 (stereo not shown) [Compound 91],4840
7,CCN(CC)C(=O)COC(=O)C1=C(C)NC2=C(C1c1c(F)cccc1Cl)S(=O)(=O)CCS(=O)(=O)C2 (stereo not shown) [Compound 90],4240

# Now from value to compound:
row,IC50 [nM],SMILES
1,20,"CC1=C(C(=O)OCCOC(=O)c2ccc(OC(C)C)cc2)C(c2c(F)cccc2Cl)C2=C(CS(=O)(=O)CCS2(=O)=O)N1 (stereo not shown) [Compound 35, 5H-[1,4]dithiepino[6,5-b]pyridine-8-carboxylic acid, 9-(2-chloro-6-fluorophenyl)-2,3,6,9-tetrahydro-7-methyl-, 2-[[4-(1-methylethoxy)benzoyl]oxy]ethyl ester, 1,1,4,4-tetraoxide]"
2,2120,CC(=O)OCCCOC(=O)C1=C(C)NC2=C(C1c1c(F)cccc1Cl)S(=O)(=O)CCS(=O)(=O)C2 (stereo not shown) [Compound 86]
3,420,"CC1=C(C(=O)OCC(=O)OCCN(C)Cc2ccccc2)C(c2c(F)cccc2Cl)C2=C(CS(=O)(=O)CCS2(=O)=O)N1 (stereo not shown) [Compound 74, 7-methyl-9-[2-fluoro-6-chlorophenyl]-2,3,6,9-tetrahydro-1,1,4,4-tetraoxide 5H-1,4-Dithiepino[6,5-b]pyridine-8-carboxylic acid carboxy-2-(1-N-methylbenzylamine)ethyl ester]"
4,62,CC1=C(C(=O)OCCOC(=O)c2ccccc2)C(c2c(F)cccc2Cl)C2=C(CS(=O)(=O)CCS2(=O)=O)N1 (stereo not shown) [Compound 51]
5,2260,CC1=C(C(=O)OCCNC(=O)c2ccccc2)C(c2c(F)cccc2Cl)C2=C(CS(=O)(=O)CCS2(=O)=O)N1 (stereo not shown) [Compound 87]
6,153,CC1=C(C(=O)OCCOC(=O)CN(C)C(=O)c2ccccc2)C(c2c(F)cccc2Cl)C2=C(CS(=O)(=O)CCS2(=O)=O)N1 (stereo not shown) [Compound 58]
7,33,CC1=C(C(=O)OCCOC(=O)C(C)Cc2ccccc2)C(c2c(F)cccc2Cl)C2=C(CS(=O)(=O)CCS2(=O)=O)N1 (stereo not shown) [Compound 37]
8,50,CC1=C(C(=O)OCCOC(=O)CN(C)Cc2ccccc2)C(c2c(F)cccc2Cl)C2=C(CS(=O)(=O)CCS2(=O)=O)N1 (stereo not shown) [Compound 47]
9,57,CC1=C(C(=O)OCCCCOC(=O)c2ccccc2)C(c2c(F)cccc2Cl)C2=C(CS(=O)(=O)CCS2(=O)=O)N1 (stereo not shown) [Compound 49]
